Earlier results on one compound are cited in patent US20070286899A1, “Photo-composition for the treatment of joint diseases” (priority 2004, published 2007).

For this series, the system named is patients who use methotrexate.

Turning to `CN(Cc1cnc2nc(N)nc(N)c2n1)c1ccc(C(=O)N[C@@H](CCC(=O)O)C(=O)O)cc1` [methotrexate], the “patients who develop gastrointestinal problems such as diarrhea and nausea” value is reported as 60%.
